Assay results published in patent publication US20240092835A1, “NOVEL PEPTIDES CAPABLE OF ALTERING NK CELL ACTIVITY” (Massachusetts Institute of Technology, priority 2022, published 2024).
Where no end group is shown, it is not given here.

Key:
[1] = test system: NKG2A−/NKG2C+ NK cells; assay: NK cell activation markers in NKG2A-/NKG2C+ NK cells incubated with peptide and K562 expressing HLA-E (activation); assay type: cell-based, human; conditions: for effect on NKG2A−/NKG2C+ NK cell activation (in words): K562 expressing HLA-E, CD107a, IFNG, TNF, CCL3; for percentage of CCL3+ NK cells / percentage of CD107+ NK cells / percentage of IFNG+ NK cells / percentage of TNF+ NK cells: NKG2A-/NKG2C+ NK cells, K562/HLA-E
Method in brief: (§1)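 Percent-positive cells for NK activation surface markers were measured after NK cells met peptide-treated K562 cells expressing HLA-E. A decrease in that fraction was scored as inhibition and an increase as activation; NKG2A−/NKG2C− cells served as controls.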

[2] = test system: NKG2A−/NKG2C− NK cells; assay: NK cell activation markers in control NKG2A-/NKG2C- NK cells incubated with peptide and K562 expressing HLA-E; assay type: cell-based, human
Method in brief: as §1

[3] = target: T1, HLA-E (Homo sapiens, UniProt P13747); assay: HLA-E surface stabilization assay with RMA-S/HLA-E cells; assay type: cell-based; conditions: 30 μM peptide, 16 hours; for HLA-E surface expression stability (GeoMFI): anti-HLA-E antibody
T1 construct: expressed in transfected cells; host or cells: RMA-S/HLA-E cells (antigen processing-defective lymphoma cell line)
T1 sequence (P13747 22-358): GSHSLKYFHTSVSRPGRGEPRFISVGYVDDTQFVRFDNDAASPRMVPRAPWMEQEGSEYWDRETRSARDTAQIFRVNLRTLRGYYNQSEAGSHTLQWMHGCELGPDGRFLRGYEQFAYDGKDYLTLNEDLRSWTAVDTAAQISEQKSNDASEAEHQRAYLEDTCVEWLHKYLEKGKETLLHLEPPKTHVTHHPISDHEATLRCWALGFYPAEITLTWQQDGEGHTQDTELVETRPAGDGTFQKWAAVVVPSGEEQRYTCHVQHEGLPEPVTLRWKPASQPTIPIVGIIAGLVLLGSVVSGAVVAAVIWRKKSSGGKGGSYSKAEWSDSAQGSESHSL
T1 sequence (P61769 21-119 partner): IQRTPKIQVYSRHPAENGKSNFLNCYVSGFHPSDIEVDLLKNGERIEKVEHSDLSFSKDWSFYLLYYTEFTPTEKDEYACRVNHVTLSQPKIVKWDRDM
Description: HLA-E surface expression was assessed by measuring geometric mean fluorescence intensity (GeoMFI) in RMA-S cells following immunofluorescence staining with an anti-HLA-E antibody (Table 14). Increased GeoMFI was indicative of increased HLA-E surface expression stability following novel peptide exposures (FIG. 3).

[4] = target: CD94/NKG2C (Homo sapiens, UniProt P26717+Q13241); assay: Steady-state surface plasmon resonance of peptide-HLA-E complex with CD94/NKG2C; assay type: binding; conditions: for Binding of peptide-HLA-E complexes to CD94/NKG2C normalized to a theoretical Rmax: steady-state SPR
CD94/NKG2C, sequence (P26717 94-231 limits assumed): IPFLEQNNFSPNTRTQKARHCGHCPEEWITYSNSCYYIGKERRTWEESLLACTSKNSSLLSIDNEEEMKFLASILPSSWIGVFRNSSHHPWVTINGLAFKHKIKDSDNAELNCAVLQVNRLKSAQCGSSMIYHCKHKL
CD94/NKG2C, sequence (Q13241 32-179 limits assumed): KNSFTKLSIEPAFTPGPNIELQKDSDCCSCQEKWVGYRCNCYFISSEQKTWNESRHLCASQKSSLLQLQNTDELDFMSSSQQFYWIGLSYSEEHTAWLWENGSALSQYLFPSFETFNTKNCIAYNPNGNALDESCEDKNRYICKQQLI
Description: Binding affinity of novel peptides linked to HLA-E was determined using surface plasmon resonance (SPR), a methodology used to study protein-protein interactions (Tables 15-19). The peptide-HLA-E complex (generated as a single chain trimer) was immobilized on the sensor chip surface and CD94/NKG2A or CD94/NKG2C were flowed over. Steady-state surface plasmon resonance experiments were performed with a Biacore T200 instrument. CD94/NKG2x in HBS-EP+ buffer was injected as analyte in a concentration range of 0.1 μM to 102.4 μM and flow rate of 10 μL/min at 25° C. Data was fit with Prism 9.4 (GraphPad Software Inc; San Diego CA) to a “one site, specific binding” model. Series S CM5 chips were coupled to neutravidin and utilized. Biotinylated pMHC was immobilized at approximately 400 RU. KD values calculated by Biacore software are reported. Rmax, fit values were calculated by Biacore software. Rmax, theoretical values were calculated using the analyte/ligand mass ratio (0.66) multiplied by the amount of ligand coupled to the chip.

In the case of QMPSRSLLF [human1, QMPSRSLLF], the “effect on NKG2A−/NKG2C+ NK cell activation (in words)” value ([1]; listed as SEQ ID NO. 7) is reported as “strong activating effects”, the “effect on NKG2A−/NKG2C+ NK cell activation (in words)” value ([1]; listed as h1) is reported as “strong inhibitory and activating effects” and the “percentage of CCL3+ NK cells” value ([1]; Trial 1) is reported as 78.3%. The “percentage of CD107+ NK cells” value ([1]; Trial 1) was 74.8%, the “percentage of IFNG+ NK cells” value ([1]; Trial 1) was 62.6% and the “percentage of TNF+ NK cells” value ([1]; Trial 1) was 51.1%. For the same sequence, the “percentage of CCL3+ NK cells” value ([1]; Trial 2) was 91.5%, the “percentage of CD107+ NK cells” value ([1]; Trial 2) was 87.4% and the “percentage of IFNG+ NK cells” value ([1]; Trial 2) was 84.1%. For the same sequence, the “percentage of TNF+ NK cells” value ([1]; Trial 2) was 75.2%, the “percentage of CCL3+ NK cells” value ([1]; Trial 3) was 86.6% and the “percentage of CD107+ NK cells” value ([1]; Trial 3) was 87%. The “percentage of IFNG+ NK cells” value ([1]; Trial 3) was 80.5%, the “percentage of TNF+ NK cells” value ([1]; Trial 3) was 72.9% and the “percentage of CCL3+ NK cells” value ([1]; Trial 4) was 68.1%. The “percentage of CD107+ NK cells” value ([1]; Trial 4) was 68.2%, the “percentage of IFNG+ NK cells” value ([1]; Trial 4) was 58.1% and the “percentage of TNF+ NK cells” value ([1]; Trial 4) was 51.6%. For the same sequence, the “percentage of CCL3+ NK cells” value ([1]; Trial 5) was 79.1%, the “percentage of CD107+ NK cells” value ([1]; Trial 5) was 75.8% and the “percentage of IFNG+ NK cells” value ([1]; Trial 5) was 66.9%. The “percentage of TNF+ NK cells” value ([1]; Trial 5) was 64%, the “percentage of CCL3+ NK cells” value ([1]; Trial 6) was 61.1% and the “percentage of CD107+ NK cells” value ([1]; Trial 6) was 57.6%. For the same sequence, the “percentage of IFNG+ NK cells” value ([1]; Trial 6) was 46.7%, the “percentage of TNF+ NK cells” value ([1]; Trial 6) was 38.8% and the “percentage CCL3+ NK cells” value ([2]; Trial 1) was 37%. For the same sequence, the “percentage CD107+ NK cells” value ([2]; Trial 1) was 25.1%, the “percentage TNF+ NK cells” value ([2]; Trial 1) was 4.84% and the “percentage of IFNG+ NK cells” value ([2]; Trial 1) was 16.2%. The “percentage CCL3+ NK cells” value ([2]; Trial 2) was 59.6%, the “percentage CD107+ NK cells” value ([2]; Trial 2) was 37.6% and the “percentage TNF+ NK cells” value ([2]; Trial 2) was 11.3%. The “percentage of IFNG+ NK cells” value ([2]; Trial 2) was 29.3%, the “percentage CCL3+ NK cells” value ([2]; Trial 3) was 51.3% and the “percentage CD107+ NK cells” value ([2]; Trial 3) was 47.2%. The “percentage TNF+ NK cells” value ([2]; Trial 3) was 19%, the “percentage of IFNG+ NK cells” value ([2]; Trial 3) was 38.5% and the “percentage CCL3+ NK cells” value ([2]; Trial 4) was 33.1%. For the same sequence, the “percentage CD107+ NK cells” value ([2]; Trial 4) was 29.5%, the “percentage TNF+ NK cells” value ([2]; Trial 4) was 9.26% and the “percentage of IFNG+ NK cells” value ([2]; Trial 4) was 18.6%. For the same sequence, the “percentage CCL3+ NK cells” value ([2]; Trial 5) was 26%, the “percentage CD107+ NK cells” value ([2]; Trial 5) was 19.8% and the “percentage TNF+ NK cells” value ([2]; Trial 5) was 6.91%. For the same sequence, the “percentage of IFNG+ NK cells” value ([2]; Trial 5) was 15.9%, the “percentage CCL3+ NK cells” value ([2]; Trial 6) was 24.1% and the “percentage CD107+ NK cells” value ([2]; Trial 6) was 18.8%. For the same sequence, the “percentage TNF+ NK cells” value ([2]; Trial 6) was 3.78%, the “percentage of IFNG+ NK cells” value ([2]; Trial 6) was 7.82% and the “HLA-E surface expression stabilization strength (in words)” value [3] was “moderate”. The “HLA-E surface expression stability (GeoMFI)” value ([3]; Trial 1) was 2461 GeoMFI, the “HLA-E surface expression stability (GeoMFI)” value ([3]; Trial 2) was 1755 GeoMFI and the “HLA-E surface expression stability (GeoMFI)” value ([3]; Trial 3) was 2273 GeoMFI. The “HLA-E surface expression stability (GeoMFI)” value ([3]; Trial 4) was 2496 GeoMFI, the “HLA-E surface expression stabilization strength, approximate GeoMFI” value ([3]; approximate value) was “approximately 2×10^3 GeoMFI” and the “binding of peptide-HLA-E complex to CD94/NKG2C normalized to a fitted Rmax” value ([4]; CD94/NKG2C concentration 0 μM) was −0.007. The “binding of peptide-HLA-E complex to CD94/NKG2C normalized to a fitted Rmax” value ([4]; CD94/NKG2C concentration 0.1 μM) was 0.007, the “binding of peptide-HLA-E complex to CD94/NKG2C normalized to a fitted Rmax” value ([4]; CD94/NKG2C concentration 0.2 μM) was 0.017 and the “binding of peptide-HLA-E complex to CD94/NKG2C normalized to a fitted Rmax” value ([4]; CD94/NKG2C concentration 0.4 μM) was 0.038. For the same sequence, the “binding of peptide-HLA-E complex to CD94/NKG2C normalized to a fitted Rmax” value ([4]; CD94/NKG2C concentration 0.8 μM) was 0.076, the “binding of peptide-HLA-E complex to CD94/NKG2C normalized to a fitted Rmax” value ([4]; CD94/NKG2C concentration 1.6 μM) was 0.144 and the “binding of peptide-HLA-E complex to CD94/NKG2C normalized to a fitted Rmax” value ([4]; CD94/NKG2C concentration 3.2 μM) was 0.246. For the same sequence, the “binding of peptide-HLA-E complex to CD94/NKG2C normalized to a fitted Rmax” value ([4]; CD94/NKG2C concentration 6.4 μM) was 0.394, the “binding of peptide-HLA-E complex to CD94/NKG2C normalized to a fitted Rmax” value ([4]; CD94/NKG2C concentration 12.8 μM) was 0.564 and the “binding of peptide-HLA-E complex to CD94/NKG2C normalized to a fitted Rmax” value ([4]; CD94/NKG2C concentration 25.6 μM) was 0.723. For the same sequence, the “binding of peptide-HLA-E complex to CD94/NKG2C normalized to a fitted Rmax” value ([4]; CD94/NKG2C concentration 51.2 μM) was 0.832, the “binding of peptide-HLA-E complex to CD94/NKG2C normalized to a fitted Rmax” value ([4]; CD94/NKG2C concentration 102.4 μM) was 0.912 and the “Binding of peptide-HLA-E complexes to CD94/NKG2C normalized to a theoretical Rmax” value ([4]; CD94/NKG2C analyte concentration 0 μM) was −0.004. For the same sequence, the “Binding of peptide-HLA-E complexes to CD94/NKG2C normalized to a theoretical Rmax” value ([4]; CD94/NKG2C analyte concentration 0.1 μM) was 0.004, the “Binding of peptide-HLA-E complexes to CD94/NKG2C normalized to a theoretical Rmax” value ([4]; CD94/NKG2C analyte concentration 0.2 μM) was 0.010 and the “Binding of peptide-HLA-E complexes to CD94/NKG2C normalized to a theoretical Rmax” value ([4]; CD94/NKG2C analyte concentration 0.4 μM) was 0.023. The “Binding of peptide-HLA-E complexes to CD94/NKG2C normalized to a theoretical Rmax” value ([4]; CD94/NKG2C analyte concentration 0.8 μM) was 0.047, the “Binding of peptide-HLA-E complexes to CD94/NKG2C normalized to a theoretical Rmax” value ([4]; CD94/NKG2C analyte concentration 1.6 μM) was 0.088 and the “Binding of peptide-HLA-E complexes to CD94/NKG2C normalized to a theoretical Rmax” value ([4]; CD94/NKG2C analyte concentration 3.2 μM) was 0.151. The “Binding of peptide-HLA-E complexes to CD94/NKG2C normalized to a theoretical Rmax” value ([4]; CD94/NKG2C analyte concentration 6.4 μM) was 0.242, the “Binding of peptide-HLA-E complexes to CD94/NKG2C normalized to a theoretical Rmax” value ([4]; CD94/NKG2C analyte concentration 12.8 μM) was 0.346 and the “Binding of peptide-HLA-E complexes to CD94/NKG2C normalized to a theoretical Rmax” value ([4]; CD94/NKG2C analyte concentration 25.6 μM) was 0.444. The “Binding of peptide-HLA-E complexes to CD94/NKG2C normalized to a theoretical Rmax” value ([4]; CD94/NKG2C analyte concentration 51.2 μM) was 0.511 and the “Binding of peptide-HLA-E complexes to CD94/NKG2C normalized to a theoretical Rmax” value ([4]; CD94/NKG2C analyte concentration 102.4 μM) was 0.560.
